# In paper PMC3625656 (Physical biology, 2012):
# Legend:
# [1] = tested on: squid giant axon; test: Axonal transport of injected fluorescent bead cargo, confocal time-lapse; assay type: cell-based, North Atlantic Long-Finned Squid (Loligo pealleii)
# [2] = target: APP-C peptide of the affinity measurement (15 aa; human or squid sequence not told); test: pull-down
Kd [2] [nM],Substance,Run length ([1]; calculated as v1/k1) [μm],"Detachment rate k1 ([1]; from average run time, Poisson distribution, run v1 > 0.1 μm s^−1, about 40 runs) [s⁻¹]"
,GYENPTYKFFEQMQN [hAPP-C],11.5,0.0322
4.7,kinesin-1 of rat brain extract (from UniProt Q2PQA9 1-963) (complex),,
